The record followed here is patent EP4722207A1, “OXOISOINDOLINYL-SUBSTITUTED TETRAHYDROPYRIMIDINEDIONE DERIVATIVE AND USE THEREOF” (Gluetacs Therapeutics (Shanghai) Co., Ltd., priority 2023, dated 2024).

Format in all cases: cell-based
Conditions in all cases: compounds at 50 nM and 500 nM, 24 hours

One test deals with T1, WEE1 (Homo sapiens, UniProt P30291+Q96SW2).
T1 construct: effects of the compounds of the present disclosure on the expression of target proteins in cells; endogenous in cells; host or cells: human PBMCs (hPBMCs)
Description: Western-blot assay, substrate protein degradation in hPBMCs: WEE1.

Another test deals with T2, IKZF1 (Homo sapiens, UniProt Q13422+Q96SW2).
T2 construct: effects of the compounds of the present disclosure on the expression of target proteins in cells; endogenous in cells; host or cells: human PBMCs (hPBMCs)
The test can be described thus: Western-blot assay, substrate protein degradation in hPBMCs: IKZF1.

For a further test, the target named is T3, IKZF2 (Homo sapiens, UniProt Q96SW2+Q9UKS7).
T3 construct: effects of the compounds of the present disclosure on the expression of target proteins in cells; endogenous in cells; host or cells: human PBMCs (hPBMCs)
Description: Western-blot assay, substrate protein degradation in hPBMCs: IKZF2.

The next test concerns the target T4, IKZF3 (Homo sapiens, UniProt Q96SW2+Q9UKT9).
T4 construct: effects of the compounds of the present disclosure on the expression of target proteins in cells; endogenous in cells; host or cells: human PBMCs (hPBMCs)
Description: Western-blot assay, substrate protein degradation in hPBMCs: IKZF3.

For another test, the target named is T5, CK1α (Homo sapiens, UniProt P48729+Q96SW2).
T5 construct: effects of the compounds of the present disclosure on the expression of target proteins in cells; endogenous in cells; host or cells: human PBMCs (hPBMCs)
Description: Western-blot assay, substrate protein degradation in hPBMCs: CK1α.

The target in the next test is T6, GSPT1 (Homo sapiens, UniProt P15170+Q96SW2).
T6 construct: effects of the compounds of the present disclosure on the expression of target proteins in cells; endogenous in cells; host or cells: human PBMCs (hPBMCs)
Description: Western-blot assay, substrate protein degradation in hPBMCs: GSPT1.

T1 sequence (P30291 whole entry): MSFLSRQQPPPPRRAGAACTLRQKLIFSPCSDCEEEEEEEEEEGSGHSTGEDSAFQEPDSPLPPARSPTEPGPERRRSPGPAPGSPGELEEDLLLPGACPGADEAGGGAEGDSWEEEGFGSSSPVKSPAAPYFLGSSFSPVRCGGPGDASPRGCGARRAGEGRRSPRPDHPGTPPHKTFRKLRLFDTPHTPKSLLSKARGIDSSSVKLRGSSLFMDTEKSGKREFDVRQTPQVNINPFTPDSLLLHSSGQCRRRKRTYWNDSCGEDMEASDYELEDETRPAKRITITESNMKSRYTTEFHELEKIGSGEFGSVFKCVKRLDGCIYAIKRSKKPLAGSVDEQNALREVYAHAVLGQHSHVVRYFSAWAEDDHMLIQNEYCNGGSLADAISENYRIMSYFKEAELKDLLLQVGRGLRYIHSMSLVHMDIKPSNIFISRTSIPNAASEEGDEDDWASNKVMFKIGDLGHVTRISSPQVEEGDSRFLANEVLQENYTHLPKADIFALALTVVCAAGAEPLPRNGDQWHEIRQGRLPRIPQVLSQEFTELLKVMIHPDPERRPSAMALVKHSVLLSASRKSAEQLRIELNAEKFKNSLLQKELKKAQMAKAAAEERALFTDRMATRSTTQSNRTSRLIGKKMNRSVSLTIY
T1 sequence (Q96SW2 whole entry): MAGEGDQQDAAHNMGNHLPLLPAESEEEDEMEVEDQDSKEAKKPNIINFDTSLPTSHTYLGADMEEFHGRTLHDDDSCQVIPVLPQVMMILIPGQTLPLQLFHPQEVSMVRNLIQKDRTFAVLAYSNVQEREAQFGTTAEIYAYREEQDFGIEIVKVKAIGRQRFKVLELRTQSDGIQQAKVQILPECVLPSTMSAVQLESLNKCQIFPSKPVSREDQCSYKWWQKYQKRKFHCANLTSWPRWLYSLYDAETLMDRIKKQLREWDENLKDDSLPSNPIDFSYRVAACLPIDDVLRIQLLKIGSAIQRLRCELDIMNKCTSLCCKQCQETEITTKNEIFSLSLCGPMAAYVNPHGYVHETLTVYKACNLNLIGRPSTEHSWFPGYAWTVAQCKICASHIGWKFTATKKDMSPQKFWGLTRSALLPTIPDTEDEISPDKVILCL
T1 sequence (Q16531 whole entry partner): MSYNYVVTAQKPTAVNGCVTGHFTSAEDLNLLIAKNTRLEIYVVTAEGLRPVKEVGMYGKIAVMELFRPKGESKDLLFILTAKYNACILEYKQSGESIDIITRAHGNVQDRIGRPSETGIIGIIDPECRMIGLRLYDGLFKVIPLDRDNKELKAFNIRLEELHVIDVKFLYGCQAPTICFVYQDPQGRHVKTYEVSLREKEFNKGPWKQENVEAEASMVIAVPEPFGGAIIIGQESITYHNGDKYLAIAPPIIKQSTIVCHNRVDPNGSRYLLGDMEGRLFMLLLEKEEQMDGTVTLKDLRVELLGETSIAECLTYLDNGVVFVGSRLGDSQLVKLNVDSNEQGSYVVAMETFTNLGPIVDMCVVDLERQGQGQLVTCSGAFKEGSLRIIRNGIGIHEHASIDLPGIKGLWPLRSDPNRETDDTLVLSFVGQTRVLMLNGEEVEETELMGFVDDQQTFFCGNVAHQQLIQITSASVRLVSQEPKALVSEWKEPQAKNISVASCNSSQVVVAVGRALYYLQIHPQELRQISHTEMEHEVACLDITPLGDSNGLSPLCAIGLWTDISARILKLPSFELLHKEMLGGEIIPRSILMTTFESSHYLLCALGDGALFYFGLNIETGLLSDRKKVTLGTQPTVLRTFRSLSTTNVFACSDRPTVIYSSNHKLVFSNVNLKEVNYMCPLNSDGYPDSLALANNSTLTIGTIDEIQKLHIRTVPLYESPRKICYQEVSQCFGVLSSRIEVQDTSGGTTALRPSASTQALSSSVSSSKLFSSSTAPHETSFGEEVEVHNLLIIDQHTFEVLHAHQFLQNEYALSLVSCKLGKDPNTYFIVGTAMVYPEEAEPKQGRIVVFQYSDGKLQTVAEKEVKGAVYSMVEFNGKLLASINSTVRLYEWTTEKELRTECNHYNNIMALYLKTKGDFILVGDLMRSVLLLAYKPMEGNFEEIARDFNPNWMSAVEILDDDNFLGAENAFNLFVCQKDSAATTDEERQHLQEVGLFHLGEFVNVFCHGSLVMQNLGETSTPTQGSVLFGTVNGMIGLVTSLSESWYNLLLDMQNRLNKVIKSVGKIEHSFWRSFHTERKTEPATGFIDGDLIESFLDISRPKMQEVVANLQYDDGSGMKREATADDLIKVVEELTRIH
T2 sequence (Q13422 whole entry): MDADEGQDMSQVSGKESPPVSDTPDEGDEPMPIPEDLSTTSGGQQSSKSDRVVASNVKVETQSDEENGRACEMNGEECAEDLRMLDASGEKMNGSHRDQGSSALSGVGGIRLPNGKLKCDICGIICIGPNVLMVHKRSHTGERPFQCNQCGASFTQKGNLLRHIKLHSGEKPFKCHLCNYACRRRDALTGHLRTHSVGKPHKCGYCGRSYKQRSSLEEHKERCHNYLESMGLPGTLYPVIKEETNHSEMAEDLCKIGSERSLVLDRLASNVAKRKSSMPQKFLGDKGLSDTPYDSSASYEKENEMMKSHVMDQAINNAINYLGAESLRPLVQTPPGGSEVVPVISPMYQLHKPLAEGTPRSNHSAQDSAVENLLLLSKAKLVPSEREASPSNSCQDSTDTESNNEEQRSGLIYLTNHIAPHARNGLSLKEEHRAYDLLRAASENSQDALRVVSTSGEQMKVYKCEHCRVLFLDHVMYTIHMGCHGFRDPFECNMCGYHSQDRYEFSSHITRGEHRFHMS
T2 sequence (Q96SW2 whole entry): as the sequence (Q96SW2 whole entry) above
T2 sequence (Q16531 whole entry partner): as the sequence (Q16531 whole entry partner) above
T3 sequence (Q9UKS7 whole entry): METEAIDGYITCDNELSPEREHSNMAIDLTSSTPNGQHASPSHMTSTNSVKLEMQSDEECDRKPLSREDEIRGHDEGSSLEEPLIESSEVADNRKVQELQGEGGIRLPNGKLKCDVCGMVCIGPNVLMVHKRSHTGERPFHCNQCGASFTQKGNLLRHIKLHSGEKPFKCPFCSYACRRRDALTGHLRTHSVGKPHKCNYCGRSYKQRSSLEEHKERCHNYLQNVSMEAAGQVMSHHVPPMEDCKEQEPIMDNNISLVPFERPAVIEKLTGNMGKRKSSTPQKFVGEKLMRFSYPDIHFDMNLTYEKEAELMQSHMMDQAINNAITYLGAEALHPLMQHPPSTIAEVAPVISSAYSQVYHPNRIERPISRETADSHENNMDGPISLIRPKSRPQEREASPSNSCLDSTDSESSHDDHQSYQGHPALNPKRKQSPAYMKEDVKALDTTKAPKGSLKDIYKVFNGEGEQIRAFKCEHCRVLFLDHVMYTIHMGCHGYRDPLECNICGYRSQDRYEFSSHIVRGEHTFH
T3 sequence (Q96SW2 whole entry): as the sequence (Q96SW2 whole entry) above
T3 sequence (Q16531 whole entry partner): as the sequence (Q16531 whole entry partner) above
T5 sequence (P48729 whole entry): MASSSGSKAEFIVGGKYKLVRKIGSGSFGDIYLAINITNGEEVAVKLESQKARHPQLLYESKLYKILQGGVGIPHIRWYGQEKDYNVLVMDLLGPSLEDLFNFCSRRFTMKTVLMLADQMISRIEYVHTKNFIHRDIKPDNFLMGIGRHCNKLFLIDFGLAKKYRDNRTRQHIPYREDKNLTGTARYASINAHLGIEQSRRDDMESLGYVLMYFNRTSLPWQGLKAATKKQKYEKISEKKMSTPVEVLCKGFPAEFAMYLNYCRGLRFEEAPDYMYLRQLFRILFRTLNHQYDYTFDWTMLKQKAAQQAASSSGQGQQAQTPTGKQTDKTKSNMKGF
T5 sequence (Q96SW2 whole entry): as the sequence (Q96SW2 whole entry) above
T5 sequence (Q16531 whole entry partner): as the sequence (Q16531 whole entry partner) above
T6 sequence (P15170 whole entry): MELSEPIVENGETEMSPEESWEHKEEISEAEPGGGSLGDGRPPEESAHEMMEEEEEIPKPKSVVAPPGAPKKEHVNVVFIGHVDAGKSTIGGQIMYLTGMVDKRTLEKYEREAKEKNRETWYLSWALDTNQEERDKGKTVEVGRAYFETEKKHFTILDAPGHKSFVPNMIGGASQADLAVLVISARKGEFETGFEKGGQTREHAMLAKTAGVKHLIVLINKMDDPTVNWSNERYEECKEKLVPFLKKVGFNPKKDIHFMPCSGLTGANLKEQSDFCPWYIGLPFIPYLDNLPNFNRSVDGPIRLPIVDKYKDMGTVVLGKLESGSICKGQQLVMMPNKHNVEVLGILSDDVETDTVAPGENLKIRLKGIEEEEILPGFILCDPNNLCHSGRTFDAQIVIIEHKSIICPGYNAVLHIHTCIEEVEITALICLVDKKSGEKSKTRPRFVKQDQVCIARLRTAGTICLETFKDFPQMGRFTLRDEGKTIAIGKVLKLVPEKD
T6 sequence (Q96SW2 whole entry): as the sequence (Q96SW2 whole entry) above
T6 sequence (Q16531 whole entry partner): as the sequence (Q16531 whole entry partner) above

In the case of `O=C1CCN(N2C(=O)c3ccc(CN4CCN(c5nccc(I)c5F)CC4)cc3C2=O)C(=O)N1` [GT-06970, 2-(2,4-dioxotetrahydropyrimidin-1(2H)-yl)-5-((4-(3-fluoro-4-iodopyridin-2-yl)piperazin-1-yl)methyl)isoindoline-1,3-dione], the “WEE1 substrate protein remaining %” value on WEE1 is “A ("A" is defined as 0% ≤ substrate protein remaining % ≤ 80%)”. In addition, the “IKZF1 substrate protein remaining %” value on IKZF1 was “B ("B" is defined as 80%< substrate protein remaining %≤ 100%)”. On IKZF2, the “IKZF2 substrate protein remaining %” value was “A ("A" is defined as 0% ≤ substrate protein remaining % ≤ 80%)”. Besides, on IKZF3, the “IKZF3 substrate protein remaining %” value was “B ("B" is defined as 80%< substrate protein remaining %≤ 100%)”. For the same compound, at CK1α, the “CK1α substrate protein remaining %” value is listed as “B ("B" is defined as 80%< substrate protein remaining %≤ 100%)”. The “GSPT1 substrate protein remaining %” value on GSPT1 is recorded as “B ("B" is defined as 80%< substrate protein remaining %≤ 100%)”.

In the case of `O=C1CCN(N2C(=O)c3ccc(CN4CCN(c5cccnc5)CC4)cc3C2=O)C(=O)N1` [GT-06971, 2-(2,4-dioxotetrahydropyrimidin-1(2H)-yl)-5-((4-(pyridin-3-yl)piperazin-1-yl)methyl)isoindoline-1,3-dione], at WEE1, the “WEE1 substrate protein remaining %” value is given as “A ("A" is defined as 0% ≤ substrate protein remaining % ≤ 80%)”. Further, the “IKZF1 substrate protein remaining %” value on IKZF1 was “B ("B" is defined as 80%< substrate protein remaining %≤ 100%)”. Also, the “IKZF2 substrate protein remaining %” value on IKZF2 is recorded as “A ("A" is defined as 0% ≤ substrate protein remaining % ≤ 80%)”. The “IKZF3 substrate protein remaining %” value on IKZF3 is “B ("B" is defined as 80%< substrate protein remaining %≤ 100%)”. Further, the “CK1α substrate protein remaining %” value on CK1α is “B ("B" is defined as 80%< substrate protein remaining %≤ 100%)”. Also, the “GSPT1 substrate protein remaining %” value on GSPT1 is on record as “B ("B" is defined as 80%< substrate protein remaining %≤ 100%)”.

Take `O=C1CCN(N2C(=O)c3ccc(CN4CCN(c5cncc(Cl)c5Cl)CC4)cc3C2=O)C(=O)N1` [GT-06972, 5-((4-(4,5-dichloropyridin-3-yl)piperazin-1-yl)methyl)-2-(2,4-dioxotetrahydropyrimidin-1(2H)-yl)isoindoline-1,3-dione]: on WEE1, the “WEE1 substrate protein remaining %” value was “A ("A" is defined as 0% ≤ substrate protein remaining % ≤ 80%)”. The “IKZF1 substrate protein remaining %” value on IKZF1 is on record as “B ("B" is defined as 80%< substrate protein remaining %≤ 100%)”. Further, on IKZF2, the “IKZF2 substrate protein remaining %” value is on record as “A ("A" is defined as 0% ≤ substrate protein remaining % ≤ 80%)”. Moreover, on IKZF3, the “IKZF3 substrate protein remaining %” value is listed as “B ("B" is defined as 80%< substrate protein remaining %≤ 100%)”. Besides, on CK1α, the “CK1α substrate protein remaining %” value was “B ("B" is defined as 80%< substrate protein remaining %≤ 100%)”. The “GSPT1 substrate protein remaining %” value at GSPT1 is listed as “B ("B" is defined as 80%< substrate protein remaining %≤ 100%)”.

With `O=C1CCN(N2C(=O)c3ccc(CN4CCN(c5c(Cl)ccnc5Cl)CC4)cc3C2=O)C(=O)N1` [GT-06973, 5-((4-(2,4-dichloropyridin-3-yl)piperazin-1-yl)methyl)-2-(2,4-dioxotetrahydropyrimidin-1(2H)-yl)isoindoline-1,3-dione], the “WEE1 substrate protein remaining %” value at WEE1 is on record as “A ("A" is defined as 0% ≤ substrate protein remaining % ≤ 80%)”. The “IKZF1 substrate protein remaining %” value at IKZF1 is reported as “A ("A" is defined as 0% ≤ substrate protein remaining % ≤ 80%)”. Besides, the “IKZF2 substrate protein remaining %” value at IKZF2 was “B ("B" is defined as 80%< substrate protein remaining %≤ 100%)”. Moreover, on IKZF3, the “IKZF3 substrate protein remaining %” value was “A ("A" is defined as 0% ≤ substrate protein remaining % ≤ 80%)”. The “CK1α substrate protein remaining %” value on CK1α is reported as “B ("B" is defined as 80%< substrate protein remaining %≤ 100%)”. In addition, at GSPT1, the “GSPT1 substrate protein remaining %” value is recorded as “B ("B" is defined as 80%< substrate protein remaining %≤ 100%)”.

On to `O=C1CCN(N2Cc3cc(CN4CCN(c5c(Cl)ccnc5Cl)CC4)ccc3C2=O)C(=O)N1` [GT-06974, 1-(5-((4-(2,4-dichloropyridin-3-yl)piperazin-1-yl)methyl)-1-oxoisoindolin-2-yl)dihydropyrimidine-2,4(1H,3H)-dione], for which the “WEE1 substrate protein remaining %” value on WEE1 is on record as “A ("A" is defined as 0% ≤ substrate protein remaining % ≤ 80%)”. Besides, the “IKZF1 substrate protein remaining %” value at IKZF1 is “A ("A" is defined as 0% ≤ substrate protein remaining % ≤ 80%)”. For the same compound, the “IKZF2 substrate protein remaining %” value at IKZF2 is “B ("B" is defined as 80%< substrate protein remaining %≤ 100%)”. The “IKZF3 substrate protein remaining %” value on IKZF3 is on record as “A ("A" is defined as 0% ≤ substrate protein remaining % ≤ 80%)”. Moreover, the “CK1α substrate protein remaining %” value at CK1α is “B ("B" is defined as 80%< substrate protein remaining %≤ 100%)”. Moreover, the “GSPT1 substrate protein remaining %” value at GSPT1 was “B ("B" is defined as 80%< substrate protein remaining %≤ 100%)”.

Turning to `O=C1CCN(N2C(=O)c3ccc(CN4CCN(c5ccc(Cl)nc5)CC4)cc3C2=O)C(=O)N1` [GT-07027, 5-((4-(6-chloropyridin-3-yl)piperazin-1-yl)methyl)-2-(2,4-dioxotetrahydropyrimidin-1(2H)-yl)isoindoline-1,3-dione], at WEE1, the “WEE1 substrate protein remaining %” value was “A ("A" is defined as 0% ≤ substrate protein remaining % ≤ 80%)”. For the same compound, the “IKZF1 substrate protein remaining %” value on IKZF1 is recorded as “B ("B" is defined as 80%< substrate protein remaining %≤ 100%)”. Moreover, at IKZF2, the “IKZF2 substrate protein remaining %” value is “B ("B" is defined as 80%< substrate protein remaining %≤ 100%)”. The “IKZF3 substrate protein remaining %” value on IKZF3 is given as “B ("B" is defined as 80%< substrate protein remaining %≤ 100%)”. Besides, the “CK1α substrate protein remaining %” value on CK1α was “B ("B" is defined as 80%< substrate protein remaining %≤ 100%)”. Further, at GSPT1, the “GSPT1 substrate protein remaining %” value is “A ("A" is defined as 0% ≤ substrate protein remaining % ≤ 80%)”.

On to `O=C1CCN(N2Cc3cc(CN4CCN(c5ncnc(Cl)c5Cl)CC4)ccc3C2=O)C(=O)N1` [GT-07028, 1-(5-((4-(5,6-dichloropyrimidin-4-yl)piperazin-1-yl)methyl)-1-oxoisoindolin-2-yl)dihydropyrimidine-2,4(1H,3H)-dione], for which, on WEE1, the “WEE1 substrate protein remaining %” value is listed as “A ("A" is defined as 0% ≤ substrate protein remaining % ≤ 80%)”. Moreover, the “IKZF1 substrate protein remaining %” value at IKZF1 is “B ("B" is defined as 80%< substrate protein remaining %≤ 100%)”. In addition, the “IKZF2 substrate protein remaining %” value on IKZF2 is listed as “B ("B" is defined as 80%< substrate protein remaining %≤ 100%)”. In addition, the “IKZF3 substrate protein remaining %” value on IKZF3 is “B ("B" is defined as 80%< substrate protein remaining %≤ 100%)”. The “CK1α substrate protein remaining %” value at CK1α is on record as “B ("B" is defined as 80%< substrate protein remaining %≤ 100%)”. For the same compound, the “GSPT1 substrate protein remaining %” value at GSPT1 is reported as “A ("A" is defined as 0% ≤ substrate protein remaining % ≤ 80%)”.

`O=C1CCN(N2Cc3cc(CN4CCN(c5cnnc(Cl)c5Cl)CC4)ccc3C2=O)C(=O)N1` [GT-07029, 1-(5-((4-(5,6-dichloropyridazin-4-yl)piperazin-1-yl)methyl)-1-oxoisoindolin-2-yl)dihydropyrimidine-2,4(1H,3H)-dione]: at WEE1, the “WEE1 substrate protein remaining %” value is given as “A ("A" is defined as 0% ≤ substrate protein remaining % ≤ 80%)”. For the same compound, at IKZF1, the “IKZF1 substrate protein remaining %” value is recorded as “B ("B" is defined as 80%< substrate protein remaining %≤ 100%)”. The “IKZF2 substrate protein remaining %” value at IKZF2 is listed as “A ("A" is defined as 0% ≤ substrate protein remaining % ≤ 80%)”. Also, on IKZF3, the “IKZF3 substrate protein remaining %” value is given as “B ("B" is defined as 80%< substrate protein remaining %≤ 100%)”. Also, on CK1α, the “CK1α substrate protein remaining %” value was “B ("B" is defined as 80%< substrate protein remaining %≤ 100%)”. In addition, the “GSPT1 substrate protein remaining %” value on GSPT1 is listed as “A ("A" is defined as 0% ≤ substrate protein remaining % ≤ 80%)”.
